Results: patent US6432938B1, “19-nor-cholane steroids as neurochemical initators of change in human hypothalamic function” (Pherin Corporation, priority 1996, dated 2002)

What was measured:
[1] = system: vomeronasal organ (VNO); test: Reflex/autonomic responses (RF, CF, BT, EMG, EEG) to stimulation of the VNO with airborne substance; assay type: in vivo, human; settings: for CF (cardiac frequency): compound found to have an effect / EEG-T (electroencephalogram from temporal region): compound found to have an effect / EEG-V (electroencephalogram from vertex): compound found to have an effect / RF (respiratory frequency): compound found to have an effect / BT (body temperature): compound found to have an effect / EMG (electromyogram): compound found to have an effect: 2 second pulses to VNO, number in cell = compound with effect; for gender dimorphic effects: males versus females, all recorded parameters
Method: (§1) Electrical signals from the recording electrode are fed to a DC amplifier after which they are digitized, computer monitored, and stored. The peak-to-peak amplitude of the signals is measured, and the area under the depolarization wave is integrated, while continuously monitoring the signal both on the computer screen and on a digital oscilloscope. Artifacts produced by respiratory movements are deleted by training the subjects to practice mouth breathing with velopharyngeal closure. Samples of vomeropherins in concentration of 25-800 fmoles are delivered in the continuous air stream for durations from 300 milliseconds to 1 second. Usually, intervals of 3 to 5 minutes separated each series of short test pulses. All components of the lines carrying the test stimuli are made of Teflon©, glass or stainless steel and are carefully cleaned and sterilized before each use. Activity was recorded using standard electroencephalographic (EEG) electrodes placed at positions Cz-Al and Tz-Al of the international […] system; the ground electrode was placed on the mastoid process. Skin temperature (ST) was recorded by a small (1.0 mm) thermistor probe placed in the right ear lobe. Respiratory frequency (RF) was measured with an adjustable strain gauge placed around the lower thorax. All electrical signals were DC amplified, digitized (MP-100, Biopac systems) and continuously monitored utilizing a computer.
Studies were conducted to determine the central nervous system (CNS) reflex responses to vomeropherin stimulation of the VNO. The sexually dimorphic local responses induced by vomeropherins were sometimes mirrored in the autonomic response of male & female subjects.
Fourteen different substances were tested against a control. All substances were diluted in propylene glycol, in 2 ml glass bottles coded with numbers. The solvent (propylene glycol) was used as control.
The airborne substances were delivered to the vomeronasal organ (VNO) in 2 second pulses, using a miniprobe. Several parameters were recorded Electrovomerogram (EVG), respiratory frequency (RF), cardiac frequency (ECG), electrodermal activity (EDA), body temperature (BT), electromyogram (EMG), and electroencephalogram from vertex (EEG-V) and temporal region (EEG-T).
A summary of the results is shown in Table I. Each number indicates the compound found to have an effect in females or in males, on the parameter indicated in the upper row of the table. (For the equivalence of each number to the corresponding compound in males, and in females, see the compound numbers).

[2] = system: vomeronasal organ (VNO); test: Electrovomerogram (EVG) after airborne delivery of substance to the vomeronasal organ; assay type: in vivo, human; settings: 2 second pulses to VNO, diluted in propylene glycol, number in cell = compound with effect
From the text: The stimulation and recording system consists of a “multifunctional miniprobe” described elsewhere (Monti-Bloch, L. and Grosser, B. l. (1991) “Effect of putative pheromones on the electrical activity of the human vomeronasal organ and olfactory epithelium,” J. Steroid Biochem. Molec. Bio. 39:573582). The recording electrode is a 0.3 mm silver ball attached to a small (0.1 mm) silver wire insulated with Teflon© the surface of the electrode is first treated to produce a silver chloride interface, and is then covered with gelatin It is positioned within a small caliber Teflon© catheter (dia=5 mm) such that the tip of the electrode protrudes approximately 2 mm. The Teflon© catheter is 10 cm in length and constitutes the terminal extension for a multichannel delivery system which delivers a continuous air stream carrying discreet pulses of chemosensory stimuli. The air stream first passes into a small chamber and is bubbled through a solution containing either a vomeropherin or an olfactant in a diluent or the diluent alone. A solenoid is used to rapidly redirect the air stream from the chamber to a route which bypasses the chamber. This creates a discreet pulse of stimulant in the air stream. A second, outer Teflon© tube with a diameter of 2 mm surrounds the catheter-electrode assemblage, and its central end is connected to an aspirator that provides continuous suction of 3 ml/s. This concentric arrangement of the outer suction tube allows the emitted chemosensory stimuli to be localized to an area we call a “minifield” (approx. dia=1 mm), and it avoids diffusion of substances either to the area outside the intended stimulation site or into the respiratory system. The entire stimulating and recording assemblage may be positioned either on the neurosensory epithelium within the VNo, or on the surface of the olfactory or respiratory epithelium.
Electro-vomeronasogram (EVG): Recordings are carried out in a quiet room with the subject supine; the multi-functional miniprobe is initially stabilized within the nasal cavity using a nasal retractor placed in the vestibule. Reference and ground electrodes consist of silver discs (8 mm), both of which are positioned on the glabella.
The entrance to the VNO, or vomeronasal pit, is identified by first dilating the nasal aperture and vestibule. A 6×magnifying binocular loupe with halogen illumination is then used to introduce the tip of the Teflon© catheter and recording electrode assemblage into the VNo opening where it is stabilized at an approximate depth of 1 mm within the vomeronasal passage. Optimal placement of the recording electrode is signaled after testing for an adequate depolarization in response to a test substance.
as §1, with “All electrical signals were DC amplified, digitized (MP-100, Biopac systems) and continuously monitored utilizing a computer.” left out

SMILES	CF (cardiac frequency): compound found to have an effect ([1]; females (F))	EEG-T (electroencephalogram from temporal region): compound found to have an effect ([1]; females (F))	EVG (electrovomerogram): compound found to have an effect ([2]; females (F))	EVG (electrovomerogram): compound found to have an effect ([2]; males (M))	BT (body temperature): compound found to have an effect ([1]; males (M))	also measured
CCCCC1=CC[C@H]2[C@@H]3CCC4=C(CC[C@@H](O)C4)[C@H]3CC[C@]12C [Compound 10, 19,21-BISNORCHOLA-5(10),16-DIEN-3alpha-OL]	10	10				EEG-T (electroencephalogram from temporal region): compound found to have an effect ([1]; males (M)): 10; EEG-V (electroencephalogram from vertex): compound found to have an effect ([1]; males (M)): 10; gender dimorphic effects [1]: gender specific
CCCC=C1CCC2C3CCC4=CC(O)CCC4C3CCC12C (stereo not drawn) [Compound 5, 19,21-BISNORCHOLA-4,17(20)-DIEN-3beta-OL]			5			RF (respiratory frequency): compound found to have an effect ([1]; females (F)): 5
CCCCC1=CC[C@H]2[C@@H]3CCC4=C(CC[C@H](O)C4)[C@H]3CC[C@]12C [Compound 2, 19,21-BISNORCHOLA-5(10),16-DIEN-3beta-OL]		2	2	2	2	RF (respiratory frequency): compound found to have an effect ([1]; males (M)): 2; gender dimorphic effects [1]: gender specific
CCCCC1=CC[C@H]2[C@@H]3CCC4=CC(=O)CC[C@]4(O)[C@H]3CC[C@]12C [Compound 4, 10beta-HYDROXY-19,21-BISNORCHOLA-4,16-DIEN-3-ONE]					4	RF (respiratory frequency): compound found to have an effect ([1]; females (F)): 4; EMG (electromyogram): compound found to have an effect ([1]; males (M)): 4
CCCC=C1CC[C@H]2c3ccc4cc(O)ccc4c3CC[C@]12C [Compound 7, 19,21-BISNORCHOLA-1,3,5,7,9,17(20)-HEXAEN-3-OL]			7	7	7	EEG-T (electroencephalogram from temporal region): compound found to have an effect ([1]; males (M)): 7
CCCCC1=CC[C@H]2[C@@H]3CCc4cc(OC)ccc4[C@H]3CC[C@]12C [Compound 11, 3-METHOXY-19,21-BISNORCHOLA-1,3,5(10),16-TETRAENE]	11	11				EEG-V (electroencephalogram from vertex): compound found to have an effect ([1]; females (F)): 11; CF (cardiac frequency): compound found to have an effect ([1]; males (M)): 11; EEG-T (electroencephalogram from temporal region): compound found to have an effect ([1]; males (M)): 11; EEG-V (electroencephalogram from vertex): compound found to have an effect ([1]; males (M)): 11
CCCC=C1CC[C@H]2[C@@H]3C=Cc4cc(O)ccc4[C@H]3CC[C@]12C [Compound 3, 19,21-BISNORCHOLA-1,3,5(10),6,17(20)-PENTAEN-3-OL]			3	3	3	EEG-V (electroencephalogram from vertex): compound found to have an effect ([1]; females (F)): 3
C=C(CCC)[C@H]1CC[C@H]2[C@@H]3CCc4cc(O)ccc4[C@H]3CC[C@]12C [Compound 8, 19-NORCHOLA-1,3,5(10),20-TETRAEN-3-OL]	8					EMG (electromyogram): compound found to have an effect ([1]; females (F)): 8; EEG-V (electroencephalogram from vertex): compound found to have an effect ([1]; males (M)): 8
CCCC=C1CCC2C3CCc4cc(O)ccc4C3=CCC12C (stereo not drawn) [Compound 1, 19,21-BISNORCHOLA-1,3,5(10),9(11),17(20)-PENTAEN-3-OL]				1	1	
CC(O)CO (stereo not drawn) [Compound 6, PROPYLENE GLYCOL]		6	6			
CCCC=C1CCC2C3=CCc4cc(O)ccc4C3CCC12C (stereo not drawn) [Compound 9, 19,21-BISNORCHOLA-1,3,5(10),7,17(20)-PENTAEN-3-OL]	9					
CCCCC1=CCC2C3CCC4=C(CCC(=O)C4)C3CCC12C (stereo not drawn) [Compound 12, 19,21-bisnorchola-5(10),16-dien-3-one]						CF (cardiac frequency): compound found to have an effect ([1]; males (M)): 12
